Our source for the IC50 values is patent publication US20260083750A1, “SMALL MOLECULE INHIBITORS OF KRAS PROTEINS” (MERCK SHARP & DOHME LLC, priority 2022, published 2026).

In one assay the target is NRAS (Homo sapiens, UniProt P01111). The experiment in a line: SOS-catalyzed nucleotide exchange assay (Procedure A, TR-FRET). It counts as biochemical. Conditions: 60 min preincubation, SOS + GTP, read-out: NRAS GNE IC50. From the text: (§1) Procedure for SOS-Catalyzed Nucleotide Exchange Assay for KRAS-G12C/D/V, G13D, HRAS, and NRAS (Procedure A)
NRAS, sequence (P01111 with tags, fused parts or gaps): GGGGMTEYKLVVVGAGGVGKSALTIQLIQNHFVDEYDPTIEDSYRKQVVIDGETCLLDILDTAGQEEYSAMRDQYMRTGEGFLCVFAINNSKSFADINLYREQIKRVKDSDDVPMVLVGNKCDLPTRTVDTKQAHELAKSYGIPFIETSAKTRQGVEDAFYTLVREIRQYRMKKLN
(§2) Recombinant KRAS-G12C protein used in this assay has an additional triple mutation (C51S/C80L/C118S), whereas KRAS-G12D/V, G13D, HRAS and NRAS are in context of their WT protein sequence background. Specifically, the SOS-catalyzed nucleotide exchange assay utilizes a preformed TR-FRET complex containing a specific biotinylated RAS protein (KRAS-G12C/V/D, G13D, HRAS, NRAS; described above) with Bodipy-GDP, and Terbium-streptavidin. Compounds are preincubated with this complex for 60 minutes. Subsequently, recombinant human SOS protein and unlabeled GTP are added to initiate the exchange reaction. Small molecule inhibitors stabilize the Bodipy-GDP complex whereas the untreated protein rapidly exchanges Bodipy-GDP for unlabeled GTP resulting in reduced TR-FRET signal.
(§3) To assemble the preformed TR-FRET complexes, each biotinylated RAS protein is diluted to 2 μM in an EDTA Buffer (20 mM HEPES pH 7.5, 50 mM sodium chloride, 10 mM EDTA, and 0.01% Tween) and incubated at room temperature for one hour. This mixture is then further diluted to 90 nM in an Assay Buffer (20 mM HEPES pH 7.5, 150 mM sodium chloride, 10 mM magnesium chloride, and 0.005% Tween) containing 15 nM of Terbium-Streptavidin (Invitrogen, catalog #PV3577) and 900 nM of Bodipy-GDP (Invitrogen, catalog #G22360) and incubated at room temperature for six hours. It should be noted that this preformed TR-FRET complex for each of the RAS protein were made ahead of time, aliquoted and stored at −80° C. until the day of the experiment.
(§4) Each test compound (10 mM stock in DMSO) is diluted in DMSO to make a final-10-point, 3-fold dilution and is acoustically dispensed into a 384-well assay plate (Corning, catalog #3820) using an Echo 550 (Labcyte). Each well of the assay plate receives 3 μL of a specific 3× RAS preformed TR-FRET complex and 3 μL of Assay Buffer and is incubated at room temperature for 60 minutes (preincubation time). Each well then receives 3 μL of 3× recombinant human SOS protein and GTP (Sigma, G8877) in Assay Buffer and is incubated at room temperature for 30 minutes (G13D), 60 minutes (G12C/D, H/NRAS) or 90 minutes for G12V. The final reaction in each well of […] consists of 3 mM GTP, specific Ras and SOS proteins in the following concentrations: KRAS-G12C/SOS=3 nM/40 nM, KRAS-G12D/SOS=1 nM/40 nM, KRAS-G12V/SOS=1.25 nM/160 nM, KRAS-G13D/SOS=1.25 nM/0 nM, HRAS & NRAS=1.25 nM/40 nM.
(§5) The time-resolved fluorescence resonance energy transfer (TR-FRET) signal is measured on an Envision (PerkinElmer) plate reader: Excitation filter=340 nm; emission1=495 nm; emission2=520 nm; dichroic mirror=D400/D505; delay time=[…]. The signal of each well is determined as the ratio of the emission at 520 nm to that at 495 nm. Percent effect of each well is determined after normalization to control wells containing DMSO (no effect) or a saturating concentration of inhibitor (max effect). The apparent effect as a function of compound concentration is fit to a four-parameter logistic equation.
(In TR-FRET formats the signal depends on donor and acceptor labels being close together.)

Another assay has as its target HRAS (Homo sapiens, UniProt P01112). The description is as above. It counts as biochemical. Conditions: 60 min preincubation, SOS + GTP, read-out: HRAS GNE IC50.
Source text: as §1, §2, §3, §4, §5

A further assay concerns the target T1, KRAS-G13D (Homo sapiens, UniProt P01116, G13D).
T1 construct: N-terminal biotin-acceptor peptide […]
The description is as above. It counts as biochemical. Conditions: 60 min preincubation, GTP, read-out: KRAS G13D GNE IC50. In a few lines: (§6)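 Preformed biotinylated RAS–Bodipy-GDP/Tb-streptavidin complex preincubated with compound 60 min at room temperature, then SOS plus GTP (3 mM final) added. Exchange times: G13D 30 min, G12C/D 60 min, G12V 90 min. Final RAS/SOS: G12C 3 nM/40 nM, G12D 1 nM/40 nM, G12V 1.25 nM/160 nM, G13D 1.25 nM/0 nM. TR-FRET 520/495 ratio, four-parameter fit.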

The next assay deals with T2, KRAS-G12V (Homo sapiens, UniProt P01116, G12V).
T2 construct: N-terminal biotin-acceptor peptide […]
T2 sequence (P01116 with tags, fused parts or gaps isoform P01116-2 G12V): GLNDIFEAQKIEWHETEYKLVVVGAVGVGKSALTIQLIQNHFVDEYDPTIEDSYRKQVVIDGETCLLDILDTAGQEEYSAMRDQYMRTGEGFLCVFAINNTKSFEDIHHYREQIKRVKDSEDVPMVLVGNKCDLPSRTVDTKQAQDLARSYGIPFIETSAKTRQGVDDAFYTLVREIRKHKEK
The assay is described as above. It counts as biochemical. Conditions: 60 min preincubation, SOS + GTP, read-out: KRAS G12V GNE IC50. The essentials:
as §6

The target in the next assay is T3, KRAS-G12D (Homo sapiens, UniProt P01116, G12D).
T3 construct: N-terminal biotin-acceptor peptide […]
T3 sequence (P01116 with tags, fused parts or gaps isoform P01116-2 G12D): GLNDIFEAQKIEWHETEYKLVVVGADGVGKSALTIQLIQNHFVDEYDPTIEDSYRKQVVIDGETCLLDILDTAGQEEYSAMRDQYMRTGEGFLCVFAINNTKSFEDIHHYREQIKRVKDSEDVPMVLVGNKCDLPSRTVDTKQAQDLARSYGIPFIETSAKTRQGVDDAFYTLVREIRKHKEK
The description is as above. It counts as biochemical. Conditions: 60 min preincubation, SOS + GTP, read-out: KRAS G12D GNE IC50. In a few lines:
as §6

For assay [1], the target named is T4, KRAS-G12C (C51S/C80L/C118S) (Homo sapiens, UniProt P01116, C118S/C51S/C80L/G12C).
T4 construct: N-terminal biotin-acceptor peptide […]
T4 sequence (P01116 with tags, fused parts or gaps isoform P01116-2 G12C/C51S/C80L/C118S): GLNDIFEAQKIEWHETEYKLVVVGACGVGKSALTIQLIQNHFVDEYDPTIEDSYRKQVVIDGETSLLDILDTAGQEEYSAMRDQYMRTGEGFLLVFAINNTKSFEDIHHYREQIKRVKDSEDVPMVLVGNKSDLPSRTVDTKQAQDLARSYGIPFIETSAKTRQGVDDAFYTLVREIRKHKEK
The assay is described as above. Conditions: 60 min preincubation, SOS + GTP, read-out: KRAS G12C GNE IC50. It counts as biochemical. The essentials:
as §6

Assay [2] concerns PANC08.13 cells (homozygous KRAS-G12D activating mutation). The experiment in a line: Cellular phospho-ERK assay in G12D cell line. It counts as cell-based. The settings on record: Homo sapiens, PANC-08-13, 2 hours compound incubation, ratio of p-ERK vs. total ERK, read-out: PANC 0813 pERK IC50. The essentials:
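Cells (10,000-15,000/well) were seeded overnight, then treated for 2 h at 37 °C with a 10-point 1:3 titration from 30 μM final. Lysates were assayed by AlphaLISA SureFire Ultra multiplex, with the p-ERK/total-ERK ratio as read-out; IC50 came from a 4-parameter logistic fit.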

The subject of assay [3] is SW620 cells (homozygous KRAS-G12V activating mutation). The experiment in a line: Cellular phospho-ERK assay in G12V cell line. Conditions: Homo sapiens, SW-620, 2 hours compound incubation, ratio of p-ERK vs. total ERK, read-out: SW620 pERK IC50. It counts as cell-based. Here is the method:
Procedure for Cellular Phospho-ERK Assay in G12D and G12V Cell Lines
PANC08.13 cells (ATCC® CRL-2551™), containing homozygous KRAS-G12D activating mutation, were cultured in growth medium made of RPMI1640-GlutaMAX™—I (ThermoFisher Scientific 61870) containing 15% heat inactivated fetal bovine serum (ThermoFisher Scientific 10091148)). SW620 cells (ATCC® […]), containing homozygous KRAS-G12V activating mutation, were cultured in growth medium that contains RPMI 1640-GlutaMAX™—I (ThermoFisher Scientific 61870) containing 10% heat inactivated fetal bovine serum (ThermoFisher Scientific 10091148).
Cells for the assay were harvested in growth medium after TrypLE (ThermoFisher scientific 12604021) digestion and were seeded in a 384-well collagen coated cell culture plate (Corning 356702) at a density of 10,000-15,000 cells/20 uL/well, and incubated at 37° C., 5% CO2 overnight. The compound (with 10 mM stock concentration) dose-response titrations were prepared [30 μM final ERK detection assay concentration and 1:3 dilutions, 10-point dose response] and appropriate amounts (270 nL) of test compounds were dispensed in a 384-well intermediate plate using an Echo 550 liquid handler. 30 uL/well of RPMI medium 1640-GlutaMAX™—I was added to the intermediate plate and the contents of the intermediate plate (10 uL/well) were then transferred to the 384-well collagen coated cell culture plate, which was incubated at 37° C., 5% CO2 for 2 hours. After removal of medium from the collagen coated cell culture plate, cells were lysed in lysis buffer from Alpha SureFire® Ultra™ Multiplex p-ERK and total ERK assay kit (PerkinElmer MPSU-PTERK) containing Halt™ Protease and Phosphatase inhibitor cocktail (ThermoFisher Scientific 78446) at room temperature with constant shaking at 300 rpm for 30 minutes. The cell lysates were then transferred to an OptiPlate-384 plate (PerkinElmer 6005620), and the phosphorylation of ERK (p-ERK) and total ERK levels were detected by Alpha SureFire® Ultra™ Multiplex p-EEK kit and total ERK assay kit (PerkinElmer MPSU-PTERK) following the manufacturer's protocol. Assay plates were read on a EnVision Multimode Plate Reader (PerkinElmer), and the ratio of p-ERK vs. total ERK in each well was used as the final readout. Dose response curves were analyzed using a 4-parameter logistic model to calculate IC50 values using Spotfire software.

Structures are written as SMILES.

HRAS, sequence (P01112 with tags, fused parts or gaps): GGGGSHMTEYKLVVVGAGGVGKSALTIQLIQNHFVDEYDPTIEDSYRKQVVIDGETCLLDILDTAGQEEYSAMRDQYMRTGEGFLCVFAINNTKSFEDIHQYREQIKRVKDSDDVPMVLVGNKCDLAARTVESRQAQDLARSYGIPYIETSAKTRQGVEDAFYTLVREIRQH
T1 sequence (P01116 with tags, fused parts or gaps isoform P01116-2 G13D): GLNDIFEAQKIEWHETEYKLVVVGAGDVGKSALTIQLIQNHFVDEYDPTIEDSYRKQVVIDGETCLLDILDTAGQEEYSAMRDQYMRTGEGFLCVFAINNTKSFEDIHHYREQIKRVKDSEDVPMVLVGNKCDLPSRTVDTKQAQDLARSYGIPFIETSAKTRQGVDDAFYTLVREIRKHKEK

A word on the IC50: it is the point on the concentration scale where inhibition reaches its midpoint. In the case of `C[C@H]1CCOCCN1c1nc(OC[C@@]23CCCN2C[C@H](F)C3)nc2c(F)c(-c3ccc(F)c4sc(N)c(C#N)c34)c(Cl)cc12` (single isomer, unassigned) [Ex. 19], the IC50 came to 4310 nM on NRAS; 2070 nM on HRAS; 2.37 nM on KRAS-G13D; 2.32 nM on KRAS-G12V; 2.4 nM on KRAS-G12D; 6.07 nM in assay [1]. Also, the IC50 in assay [2] came to 34.2 nM; in assay [3], 15 nM.

As to `N#Cc1c(N)sc2c(F)ccc(-c3c(Cl)cc4c(N5CCCCCC5)nc(OC[C@@]56CCCN5C[C@H](F)C6)nc4c3F)c12` [Ex. 1, 2-amino-4-(4-(azepan-1-yl)-6-chloro-8-fluoro-2-(((2R,7aS)-2-fluorotetrahydro-1H-pyrrolizin-7a(5H)-yl)methoxy)quinazolin-7-yl)-7-fluorobenzo[b]thiophene-3-carbonitrile], the IC50 was above 11100 nM on NRAS, above 11100 nM on HRAS, 68.8 nM in assay [2] and 74.5 nM in assay [3].

In the case of `C[C@H]1CCCCCN1c1nc(OC[C@@]23CCCN2C[C@H](F)C3)nc2c(F)c(-c3ccc(F)c4sc(N)c(C#N)c34)c(Cl)cc12` [Ex. 3, 2-amino-4-(6-chloro-8-fluoro-2-(((2R,7aS)-2-fluorotetrahydro-1H-pyrrolizin-7a(5H)-yl)methoxy)-4-((S)-2-methylazepan-1-yl)quinazolin-7-yl)-7-fluorobenzo[b]thio-phene-3-carbonitrile], the IC50 at NRAS was above 11100 nM; at HRAS it was above 11100 nM; on KRAS-G13D it was 54.6 nM; at KRAS-G12V it was 40.3 nM; at KRAS-G12D, 113 nM; in assay [1], 30.9 nM. Further, the figures for the IC50 in assay [2] and in assay [3] were 776 nM and 806 nM, respectively.

`N#Cc1c(N)sc2c(F)ccc(-c3c(Cl)cc4c(N5CCCOCC5)nc(OC[C@@]56CCCN5C[C@H](F)C6)nc4c3F)c12` [Ex. 4, 2-amino-4-(6-chloro-8-fluoro-2-(((2R,7aS)-2-fluorotetrahydro-1H-pyrrolizin-7a(5H)-yl)methoxy)-4-(1,4-oxazepan-4-yl)quinazolin-7-yl)-7-fluorobenzo[b]thio-phene-3-carbonitrile]: the IC50 was above 11100 nM at NRAS; above 11100 nM on HRAS; 7.62 nM at KRAS-G13D; 3.33 nM on KRAS-G12V; 7.62 nM on KRAS-G12D; 15.5 nM in assay [1]. The figures for the IC50 in assay [2] and in assay [3] were 56.2 nM and 48.6 nM, respectively.

For `C[C@H]1CCOCCN1c1nc(OC[C@@]23CCCN2C[C@H](F)C3)nc2c(F)c(-c3ccc(F)c4sc(N)c(C#N)c34)c(Cl)cc12` [Ex. 6, 2-amino-4-(6-chloro-8-fluoro-2-(((2R,7aS)-2-fluorotetrahydro-1H-pyrrolizin-7a(5H)-yl)methoxy)-4-((S)-5-methyl-1,4-oxazepan-4-yl)quinazolin-7-yl)-7-fluorobenzo[b]thio-phene-3-carbonitrile], the IC50 was determined as 9490 nM on NRAS; 2190 nM on HRAS; 2.4 nM at KRAS-G13D; 3.15 nM on KRAS-G12V; 3.78 nM at KRAS-G12D; 9.16 nM in assay [1]. Moreover, the IC50 came out at 33.9 nM in assay [2] and 18.8 nM in assay [3].

In the case of `N#Cc1c(N)sc2c(F)ccc(-c3ncc4c(N5CCCOCC5)nc(OC[C@@]56CCCN5C[C@H](F)C6)nc4c3F)c12` [Ex. 20, 2-amino-7-fluoro-4-(8-fluoro-2-(((2R,7aS)-2-fluorotetrahydro-1H-pyrrolizin-7a(5H)-yl)methoxy)-4-(1,4-oxazepan-4-yl)pyrido[4,3-d]pyrimidin-7-yl)benzo[b]thiophene-3-carbonitrile], the IC50 is above 11100 nM at NRAS; above 11100 nM at HRAS; 93.1 nM at KRAS-G13D; 60 nM at KRAS-G12V; 294 nM on KRAS-G12D; 75.5 nM in assay [1]. Moreover, the IC50 in assay [2] was 1420 nM; in assay [3] it was 510 nM.

`CCNC[C@@]1(COc2nc(N3CCCOCC3)c3cc(Cl)c(-c4ccc(F)c5sc(N)c(C#N)c45)c(F)c3n2)CC1(F)F` [compound 30, 2-amino-4-(6-chloro-2-(((R)-1-((ethylamino)methyl)-2,2-difluorocyclopropyl)methoxy)-8-fluoro-4-(1,4-oxazepan-4-yl)quinazolin-7-yl)-7-fluorobenzo[b]thiophene-3-carbonitrile]: the IC50 is 33 nM on KRAS-G12V, 206 nM at KRAS-G12D, 849 nM in assay [2] and 305 nM in assay [3].
